Measurements published in US20110059970A1, “4-PHENYL-1,3-THIAZOLES AND 4-PHENYL-1,3-OXAZOLES DERIVATIVES AS CANNABINOID RECEPTOR LIGANDS” (IPSEN PHARMA S.A.S., priority 2007, published 2011).
Structures can show the parent of a compound that is named as a salt.

Molecular target: T1, human CB2 receptors (Homo sapiens, UniProt P34972)
T1 construct: expressed in transfected cells; membranes prepared from them
Test: Affinity for human CB2 receptors: inhibition of [3H]-CP55940 binding to membranes of transfected CHO-K1 cells
Conditions: [3H]-CP55940 (1 nM) competition, CHO-K1 membranes; IC50 converted to Ki by Cheng-Prusoff; read-out: affinity for the CB2 receptor
Protocol: Study of the Affinity of the Compounds for Human Cannabinoid CB2 Receptors
The affinity of the compounds of the invention for human CB2 receptors was determined by measuring inhibition of [^3H]-CP55940 binding to membrane preparations produced from transfected CHO-K1 cells.
CHO-K1 cells stably expressing human CB2 receptors were cultured in RPMI 1640 medium supplemented with 10% foetal calf serum, 2 mM glutamine, 100 U/ml penicillin, 0.1 mg/ml streptomycin and 0.5 mg/ml G418. The cells were collected using 0.5 mM EDTA and centrifuged at 500 g for 5 min at 4° C. The cell pellet was resuspended in phosphate buffered saline (PBS) and centrifuged at 500 g for 5 min at 4° C. The pellet was resuspended in 50 mM tris buffer pH 7.4 and centrifuged at 500 g for 5 min at 4° C. The cells were lysed by sonication and centrifuged at 39,000 g for 10 min at 4° C. The pellet was resuspended in 50 mM tris buffer pH 7.4 and centrifuged at 50,000 g for 10 min at 4° C. The membranes obtained in this final pellet were stored at −80° C.
Competitive inhibition of the binding of [^3H]-CP55940 to CB2 receptors was determined in duplicate in 96-well polypropylene plates. Cell membranes (10 μg of protein/well) were incubated with [^3H]-CP55940 (1 nM) for 60 min at 25° C. in 50 mM Tris-HCl buffer, pH 7.4, containing 0.1% bovine serum albumin (BSA), 5 mM MgCl2, and 50 μg/ml of bacitracin.
Bound [^3H]-CP55940 was separated from free [^3H]-CP55940 by filtration through GF/C fibre glass filter plates (Unifilter, Packard) pre-impregnated with 0.1% polyethylenimine (P.E.I.), using a Filtermate 196 (Packard). The filters were washed with 50 mM Tris-HCl buffer, pH 7.4 at 0-4° C. and the radioactivity present was determined using a counter (Packard Top Count).
Specific binding was obtained by subtracting non-specific binding (determined in the presence of 0.1 μM WIN55212-2) from total binding. The data were analysed by computer-assisted nonlinear regression (MDL). For each test, the IC50 value was converted to a Ki value (inhibition constant) using the Cheng-Prusoff equation.
where [L] is the concentration of the radioligand used in the assay and Kd is the dissociation constant of the radioligand at equilibrium.

T1 sequence (P34972 whole entry): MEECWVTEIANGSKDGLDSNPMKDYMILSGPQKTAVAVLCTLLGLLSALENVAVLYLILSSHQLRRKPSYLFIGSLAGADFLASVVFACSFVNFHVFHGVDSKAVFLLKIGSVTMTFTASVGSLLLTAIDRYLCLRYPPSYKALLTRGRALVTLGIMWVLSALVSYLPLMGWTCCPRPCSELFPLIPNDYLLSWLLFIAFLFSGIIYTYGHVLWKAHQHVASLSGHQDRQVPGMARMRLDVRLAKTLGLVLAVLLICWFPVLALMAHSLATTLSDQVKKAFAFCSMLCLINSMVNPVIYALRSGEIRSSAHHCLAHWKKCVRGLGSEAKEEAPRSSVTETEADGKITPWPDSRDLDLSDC

Row | Ki [nM] | Structure (SMILES)
1 | 500 to 1000 | CC(C)(C)c1cc(-c2csc(C3(N)CCSCC3)n2)cc(C(C)(C)C)c1O [Example 5, 4-[2-(4-aminotetrahydro-2H-thiopyran-4-yl)-1,3-thiazol-4-yl]-2,6-di-tert-butylphenol]

Tested on: not given
Test: not given
Conditions: not given

Row | Structure (SMILES) | melting point [°C]
2 | CN1CCC(c2nc(-c3cc(C(C)(C)C)c(O)c(C(C)(C)C)c3)cs2)(N(C)C)CC1 (as salt: hydrochloride) [Example 23, 2,6-di-tert-butyl-4-{2-[4-(dimethylamino)-1-methylpiperidin-4-yl]-1,3-thiazol-4-yl}phenol hydrochloride] | 236 to 238
3 | CN(C)C1(c2nc(-c3ccc(Oc4ccc([N+](=O)[O-])cc4)cc3)cs2)CCOCC1 (as salt: hydrochloride) [Example 32, N,N-dimethyl-4-{4-[4-(4-nitrophenoxy)phenyl]-1,3-thiazol-2-yl}tetrahydro-2H-pyran-4-amine hydrochloride] | 167 to 169
4 | COc1c(C(C)(C)C)cc(-c2csc(C3(N)CCOCC3)n2)cc1C(C)(C)C [Example 1, {4-[4-(3,5-di-tert-butyl-4-methoxyphenyl)-1,3-thiazol-2-yl]tetrahydro-2H-pyran-4-yl}amine] | 128.4 to 129.7
5 | CC(C)(C)c1cc(-c2csc(C3(N)CCSCC3)n2)cc(C(C)(C)C)c1O [Example 5, 4-[2-(4-aminotetrahydro-2H-thiopyran-4-yl)-1,3-thiazol-4-yl]-2,6-di-tert-butylphenol] | 148.8 to 150.8
6 | CC(C)(C)c1cc(-c2csc(C3(N)CCOCC3)n2)cc(C(C)(C)C)c1 [Example 10, {4-[4-(3,5-di-tert-butylphenyl)-1,3-thiazol-2-yl]tetrahydro-2H-pyran-4-yl}amine] | 114 to 114.4

Further lines, results first:

Row | melting point [°C] | Structure (SMILES)
7 | 228.4 to 229.5 | CN(C)C1(c2nc(-c3ccc(Cc4ccccc4)cc3)cs2)CCOCC1 (as salt: hydrochloride) [Example 29, {4-[4-(4-benzylphenyl)-1,3-thiazol-2-yl]tetrahydro-2H-pyran-4-yl}dimethylamine hydrochloride]
8 | 215 to 218.8 | CN(C)C1(c2nc(-c3ccc(Sc4ccccc4)cc3)cs2)CCOCC1 (as salt: hydrochloride) [Example 33, N,N-dimethyl-4-{4-[4-(phenylthio)phenyl]-1,3-thiazol-2-yl}tetrahydro-2H-pyran-4-amine hydrochloride]
